Calls of active or inactive are those of the source. The calls are words filed in the database; no cut-off is given here.
Tests used:
[1] = system: U373-MAGI; test: Reduction in dCTP level in human U373-MAGI cells at 200 uM preincubated for 2 hrs followed by 5-aza-C addition measured after 4 hrs by LC-MS/MS analysis relative to 5-aza-C; type: functional, cell-based
[2] = system: Human immunodeficiency virus 1; test: Antiviral activity against VSV-G pseudotyped HIV-1 NL4-3 infected in human U373-MAGI cells assessed as Gag mutation at 50 uM incubated for 4 hrs prior to infection measured at 72 hrs post infection by illumina sequencing method (reference value: 18.4%); type: functional
[3] = system: Human immunodeficiency virus 1; test: Antiviral activity against VSV-G pseudotyped HIV-1 NL4-3 infected in human U373-MAGI cells assessed as Vif mutation at 50 uM incubated for 4 hrs prior to infection measured at 72 hrs post infection by illumina sequencing method (reference value: 19.2%); type: functional
[4] = system: Human immunodeficiency virus 1; test: Antiviral activity against VSV-G pseudotyped HIV-1 NL4-3 infected in human U373-MAGI cells assessed as increase in frequency of A to T transversion at 50 uM incubated for 4 hrs prior to infection measured at 72 hrs post infection by illumina sequencing method relative to control; type: functional
[5] = system: Human immunodeficiency virus 1; test: Potentiation of 5-Aza-C-induced antiviral activity against VSV-G pseudotyped HIV-1 NL4-3 infected in human U373-MAGI cells assessed as Nef mutation at 50 uM incubated for 4 hrs preinfection followed by 5-Aza-C addition for 2 hrs preinfection and subsequent viral infection measured at 72 hrs post infection by illumina sequencing method (reference value: 22.6%); type: functional

Oc1ccc(/C=C/c2cc(O)cc(O)c2)cc1 [RESVERATROL]
Activity [1]: Active
Activity [2]: 16.6%
Activity [3]: 23.4%
fold change (FC) [4]: 1.8
Activity [5]: 17.1%

From ChEMBL document CHEMBL3797079, “Synergistic reduction of HIV-1 infectivity by 5-azacytidine and inhibitors of ribonucleotide reductase” (Bioorg Med Chem, 2016)
